Assay results from US20030088057A1, “PEPTIDE SUBSTRATES PHOSPHORYLATED BY P21-ACTIVAGED PROTEIN KINASE STATEMENT REGARDING FEDERALLY SPONSORED REASEARCH OR DEVELOPMENT” (priority 1998, published 2003).
“Also recorded” adds a separate entry of the source. Read-outs that look alike come from different tables or passages of the source. No end group written: not given here.

How the values were obtained:
γ-PAK [1] = assay: Rates of phosphorylation of synthetic peptides by γ-PAK; type: biochemical, rabbit; settings: for substrate for γ-PAK (in words): synthetic peptides; for 32P incorporated, %: AKRASAA taken as 100%; for rate of phosphorylation compared to AKRASAA: relative to AKRASAA
Text: (§1) A. Materials. γ-PAK was purified from rabbit reticulocytes to apparent homogeneity by chromatography on DEAE-cellulose, SP-Sepharose, protamine agarose, and FPLC on Mono S and Mono Q. Histone I (type IIIS), mixed histone (type IIAS), trypsin (L-1-tosylamido-2-phenylethyl chloromethyl ketone treated), soybean trypsin inhibitor, bovine serum albumin (fatty acid free), and myelin basic protein were purchased from Sigma. Purified histones 2B and 4 were purchased from Boehringer-Mannheim. Myosin light chain from rabbit skeletal muscle was a gift from Dr. James Stull, University of Texas Southwestern Medical Center, Dallas, Tex.; rat prolactin was provided by Dr. Ameae Walker, University of California, Riverside, Calif.; and the purified catalytic subunit of cAMP-dependent protein kinase from bovine heart was a gift from Dr. William H. Fletcher, J. L. Pettis Memorial V. A. Hospital, Loma Linda, Calif. Protein kinase C was purified from bovine brain according to the procedure of Walton et al. [Walton, G. M., et al., Anal Biochem., 161:425-437 (1987)], with modifications [Venema, R. C., et al., J. Biol. Chem., 266:5298-5302 (1991)]. The clone for GST-Cdc42 was generously provided by Dr. Channing Der, University of North Carolina, Chapel Hill, N.C. Cellulose thin-layer chromatography sheets were from Kodak.
(§2) D. Phosphorylation Assays. Phosphorylation of protein substrates was carried out in 35 μL reaction mixtures containing 20 mM Tris-HCl, pH 7.4, 10 mM MgCl2, 30 mM 2-mercaptoethanol, 0.2 mM ATP (specific activity =1000 cpm/pmol), 2 μg of protein substrate, and 20 units of active γ-PAK (an enzyme unit is defined as the amount of enzyme that incorporates 1 pmol of phosphate into histone IIAS/ min at 30°. Under these conditions, phosphate incorporation was linear and initial rates of phosphorylation were measured. After incubation at 30° C. for 15 min, reactions were terminated by the addition of 5 μL of 100 mM nonlabeled ATP and sample buffer for gel electrophoresis [Hathaway, G. M., et al., Methods Enzymol., 60:495-511 (1979)]. Reaction mixtures were subjected to SDS-PAGE on 15% polyacrylamide gels followed by autoradiography. Phosphorylation was quantified by excising the protein band and counting the incorporated ^32P in a liquid scintillation counter. The specific activity of γ-PAK was 400 pmol min^−1 μg^−1 as reported previously using 0.2 mM ATP and 1 mg/mL mixed histone as substrate [Rooney, R. D., et al., (1996), supra].
(§3) Assays with peptides (I mM) were carried out with γ-PAK (1.6-5.6 units) in 25 μL reaction mixtures incubated for 30 min at 30° C. under conditions described above, except that 0.4 mg/mL of bovine serum albumin was added and the specific activity of ATP was 300-2000 cpm/pmol. Reactions were terminated with 5 μL of 100 mM ATP, and the amount of ^32p incorporated was quantitated by precipitation of 20 μL aliquots on P81 phosphocellulose paper with 75 mM H3PO4 as described previously [Bensen, E. S., et al., Biochim. Biophys. Acta, 1292:249-258 (1996)]. Peptides containing only one basic amino acid were analyzed by thin-layer electrophoresis on cellulose sheets for 2 h at 600 V with pyridine/acetic acid/water (10:100:890), pH 3.5, as solvent, as described previously [Bensen, E. S., et al., supra]. Activation of γ-PAK by autophosphorylation in the presence of Cdc42(GTPγS) was performed as previously described [Jakobi, R., et al., supra]. γ-PAK was also activated by limited digestion with trypsin as described previously [Rooney, R. D., et al., (1996), supra].
Target sequence in this assay (Q29502 249-500 limits assumed): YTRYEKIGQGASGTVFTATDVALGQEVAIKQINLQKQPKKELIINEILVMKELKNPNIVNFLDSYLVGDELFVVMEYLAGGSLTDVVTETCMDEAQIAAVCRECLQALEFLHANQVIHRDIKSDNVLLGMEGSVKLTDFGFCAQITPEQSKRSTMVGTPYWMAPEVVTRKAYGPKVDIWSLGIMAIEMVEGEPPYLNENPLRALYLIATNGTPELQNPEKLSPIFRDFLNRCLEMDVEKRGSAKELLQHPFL

γ-PAK [2] = assay: Kinetic parameters (Km, Vmax) for phosphorylation of synthetic peptides by γ-PAK; type: biochemical, rabbit; settings: for Km: read-out: Km
Method: as §3
Target sequence in this assay (Q29502 249-500 limits assumed): as above

γ-PAK [3] = biological target: T1, γ-PAK (Oryctolagus cuniculus, UniProt Q29502); assay: Phosphorylation of heptapeptides by Cdc42-activated γ-PAK with ATP(Mg) and ATP(Mn); type: biochemical, rabbit; settings: γ-PAK 2.5 units, Cdc42(GTPγS)-activated; 10 mM MgCl2 or 6 mM MnCl2
T1 construct: γ-PAK was purified from rabbit reticulocytes to apparent homogeneity; from tissue; host or cells: rabbit reticulocytes (γ-PAK)
Method: Synthetic heptapeptides were used to examine the activity of γ-PAK with manganese and magnesium. The peptides were incubated with γ-PAK (2.5 units), activated by autophosphorylation in the presence of Cdc42(GTPγS) and 10 mM MgCl2 or 6 mM MnCl2 as described under Experimental Procedures.

PKC = assay: Rates of phosphorylation of synthetic peptides by PKC; type: biochemical, bovine; settings: for 32P incorporated: PKC (3.4 units), with Ca2+ and phospholipids, 0.14 mM ATP; for 32P incorporated, %: PKC, AKRASAA taken as 100%
Text: as §1
(§4) Reactions with PKA (10.5 units) were carried out under the same conditions as with γ-PAK except that 0.14 mM ATP was used. Reactions with PKC (3.4 units) were performed as with PKA, with the addition of 0.4 mM CaCl2, phosphatidylinositol (15 μg/mL), phosphatidylserine (15 μg/ mL), and 1,2-diolein (3 μg/mL), as described [Tuazon, P. T., et al., (1989), supra]. A unit of PKA or PKC is defined as the amount of enzyme that incorporates 1 pmol of phosphate/min at 30° C. into histone IIAS or histone 1, respectively.
PKA and PKC are known to require basic amino acids on the N-terminal side of the phosphorylatable serine/ threonine. To distinguish their substrate specificities from that of γ-PAK, the relative rates of phosphorylation were determined with the synthetic peptide substrates using the conditions for γ-PAK, with the addition of Ca^2+ and phospholipids for PKC. The rates shown in Table 5 are calculated with equivalent units of enzyme; the rate of phosphorylation of the peptide AKRASAA (SEQ ID NO:6) is taken as 100% for all three enzymes. As would be expected, PKA preferentially phosphorylated the peptides that contained RR or RK at the −3 and −2 positions and with […] residues or proline at the −4 and −1 positions inhibitory. PKC recognized SKR>RKS>KKS. The most notable difference between γ-PAK and PKA or PKC is the effect of acidic residues on the susceptibility of the peptide to be phosphorylated. An acidic residue in the −1 or −4 position was beneficial for γ-PAK but was detrimental for both PKA and PKC (Table 5). […] In addition, γ-PAK could not tolerate an arginine in the −3 position when lysine was in the −2 position.

PKA = biological target: T2, PKA (Bos taurus, UniProt P00517); assay: Rates of phosphorylation of synthetic peptides by PKA; type: biochemical, bovine; settings: for 32P incorporated: PKA (10.5 units), 0.14 mM ATP; for 32P incorporated, %: PKA, AKRASAA taken as 100%
T2 construct: the purified catalytic subunit of cAMP-dependent protein kinase from bovine heart was a gift; from tissue; host or cells: bovine heart (gift from Dr. William H. Fletcher)
Text: as §1, with “Myosin light chain from rabbit skeletal muscle was a gift from Dr. James Stull, University of Texas Southwestern Medical Center, Dallas, Tex.; rat prolactin was provided by Dr. Ameae Walker, University of California, Riverside, Calif.; and the purified catalytic subunit of cAMP-dependent protein kinase from bovine heart was a gift from Dr. William H. Fletcher, J. L. Pettis Memorial V. A. Hospital, Loma Linda, Calif.” left out
as §4
PKA and PKC are known to require basic amino acids on the N-terminal side of the phosphorylatable serine/ threonine. To distinguish their substrate specificities from that of γ-PAK, the relative rates of phosphorylation were determined with the synthetic peptide substrates using the conditions for γ-PAK, with the addition of Ca^2+ and phospholipids for PKC.

γ-PAK [4] = assay: Phosphorylation of protein substrates by γ-PAK; type: biochemical, rabbit; settings: for substrate for γ-PAK (in words): proteins
Method: as §2
Target sequence in this assay (Q29502 249-524 limits assumed): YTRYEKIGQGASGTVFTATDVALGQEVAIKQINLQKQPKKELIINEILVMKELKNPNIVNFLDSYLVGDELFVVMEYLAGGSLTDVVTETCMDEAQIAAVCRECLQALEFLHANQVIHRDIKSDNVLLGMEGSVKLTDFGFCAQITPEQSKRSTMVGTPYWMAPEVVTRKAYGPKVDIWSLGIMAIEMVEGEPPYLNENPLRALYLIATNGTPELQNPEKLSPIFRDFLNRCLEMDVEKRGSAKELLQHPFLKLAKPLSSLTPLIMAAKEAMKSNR
A number of proteins were examined as substrates, and their relative rates of phosphorylation were compared (Table 6).

[5] = Cdc42(GTPγS)-activated γ-PAK, peptide 1 mM, KKRKSAA = 100
[6] = proteolytically (trypsin) activated γ-PAK, peptide 1 mM, compared to KKRKSAA = 100
[7] = proteolytically activated γ-PAK (5.6 units), peptide 1 mM, 30 min at 30° C.
[8] = Table 2, influence of basic amino acids, γ-PAK 1.6 units, ATP 0.2 mM
[9] = γ-PAK, calculated with equivalent units of enzyme
[10] = Table 3, influence of acidic amino acids
[11] = Table 4, influence of proline and glycine

T1 sequence (Q29502 2-524 limits assumed): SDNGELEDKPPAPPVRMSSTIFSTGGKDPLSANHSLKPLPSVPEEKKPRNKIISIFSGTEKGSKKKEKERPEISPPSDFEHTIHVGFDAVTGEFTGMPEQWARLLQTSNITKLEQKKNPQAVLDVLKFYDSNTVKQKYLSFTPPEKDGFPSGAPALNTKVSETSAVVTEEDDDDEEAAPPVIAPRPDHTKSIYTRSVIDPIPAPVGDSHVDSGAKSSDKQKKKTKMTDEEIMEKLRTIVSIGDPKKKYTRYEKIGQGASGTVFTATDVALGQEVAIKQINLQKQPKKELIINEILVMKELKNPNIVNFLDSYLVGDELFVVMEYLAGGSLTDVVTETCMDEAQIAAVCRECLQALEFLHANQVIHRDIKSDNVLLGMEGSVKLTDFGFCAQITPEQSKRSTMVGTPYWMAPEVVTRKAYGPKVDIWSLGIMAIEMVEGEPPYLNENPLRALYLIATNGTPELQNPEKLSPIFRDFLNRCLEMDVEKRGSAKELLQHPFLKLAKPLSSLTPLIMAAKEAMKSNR

Row | Vmax (γ-PAK [2]; [10]) [pmol/min] | Km (γ-PAK [2]; [10]) [µM] | 32P incorporated (PKA) [pmol/unit] | 32P incorporated, % (PKA) [%] | overall rate of phosphorylation (Vmax/Km) compared to AKRASAA (γ-PAK [2]) [fold] | Substance | rel rate (%) (γ-PAK [1]; [5]) | rel rate (%) (γ-PAK [1]; [6]) | 32P incorporated (γ-PAK [1]; [7]) [pmol/min/µg] | substrate for γ-PAK (in words) (γ-PAK [1]) | 32P incorporated, % (γ-PAK [1]; γ-PAK) [%] | 32P incorporated (γ-PAK [1]; [9]) [pmol/unit] | 32P incorporated (PKC) [pmol/unit] | 32P incorporated, % (PKC) [%] | substrate for γ-PAK (in words) (γ-PAK [4]) | other results
1 | – | – | – | – | – | AKAASAA (AKAASAA-NH2) [synthetic peptide with an amide C-terminal group] | 3 | 2 | 5 | did not serve as substrate; also recorded: could not be phosphorylated | – | – | – | – | – | Km (γ-PAK [2]; [8]): > 5000 µM; phosphorylation using ATP(Mg) or ATP(Mn) (in words) (γ-PAK [3]): not phosphorylated
2 | – | – | – | – | – | AKKASAA (AKKASAA-NH2) [synthetic peptide with an amide C-terminal group] | – | – | – | poor substrates | – | – | – | – | – | phosphorylation using ATP(Mg) or ATP(Mn) (in words) (γ-PAK [3]): not phosphorylated
3 | 11.04 | 460 | 4.8 | 100 | – | AKRASAA (AKRASAA-NH2) [synthetic peptide with an amide C-terminal group] | 189 | 141 | 426 | – | 100 | 26.8 | 3.0 | 100 | – | Vmax (γ-PAK [2]; [8]): 1.04 pmol/min; Km (γ-PAK [2]; [8]): 460 µM; Vmax (γ-PAK [2]; [11]): 1.04 pmol/min; Km (γ-PAK [2]; [11]): 460 µM
4 | 2.22 | 1420 | 3.6 | 75 | 0.7 | AKRASEA (AKRASEA-NH2) [synthetic peptide with an amide C-terminal group] | 88 | 108 | 326 | – | 68 | 18.3 | 0.2 | 6 | – | rate of phosphorylation compared to AKRASAA (γ-PAK [1]; γ-PAK): 71%; increase of Km compared to AKRASAA (γ-PAK [2]): ~3 fold
5 | 2.48 | 890 | 1.7 | 4 | 1.3 | EKRASAA (EKRASAA-NH2) [synthetic peptide with an amide C-terminal group] | 151 | 160 | 484 | – | 113 | 30.2 | 0.1 | 3 | – | rate of phosphorylation compared to AKRASAA (γ-PAK [1]; γ-PAK): 113%; increase of Km compared to AKRASAA (γ-PAK [2]): 2 fold; Vmax (γ-PAK [2]; text summary b32): 2.48 pmol/min
6 | – | – | 6.9 | – | 2 | PKRASAA (PKRASAA-NH2) [synthetic peptide with an amide C-terminal group] | 184 | 209 | 636 | – | 151 | 40.5 | 8.7 | 264 | – | decrease of Km compared to AKRASAA (γ-PAK [2]): ≈ 2 fold; increase of Vmax compared to AKRASAA (γ-PAK [2]): no effect; Vmax (γ-PAK [2]; [11]): 1.10 pmol/min; Km (γ-PAK [2]; [11]): 240 µM
7 | – | – | 5.4 | – | – | RKKKSAA (RKKKSAA-NH2) [synthetic peptide with an amide C-terminal group] | 3 | 0 | 0 | poor substrates | 0 | 0.1 | 3.1 | 94 | – | –
8 | – | – | – | – | – | casein | – | – | – | – | – | – | – | – | not substrates | –
9 | – | – | – | – | – | cdc42: small G protein; not a substrate for γ-PAK (data not shown) | – | – | – | – | – | – | – | – | not substrates | –
10 | – | – | – | – | – | protamine | – | – | – | – | – | – | – | – | not a good substrate; also recorded: did not serve as substrates | 32P incorporated (γ-PAK [4]; 2 μg protein substrate, 20 units active γ-PAK, 15 min at 30° C.): 0 pmol; substrate for γ-PAK (in words) (γ-PAK [4]; listed as Protamine): not substrates; rel rate (γ-PAK [4]; relative to histone 2B = 100): 0%
